Experiments:
[1] = organism: Rattus norvegicus; experiment: Toxicity in Sprague-Dawley rat assessed as adverse effects by 14 day toxicology study; assay type: organism-based; conditions: in vivo, 336 h
[2] = organism: Canis familiaris; experiment: Toxicity in beagle dog assessed as adverse effects by 14 day toxicology study; assay type: organism-based, Canis lupus familiaris; conditions: in vivo, 336 h
[3] = tested on: Hepatitis C virus; experiment: Ratio of EC50 for HCV genotype 1b Con1 infected in human HuH7 cells in presence of 10% BSA to EC50 for HCV genotype 1b Con1 infected in human HuH7 cells; assay type: functional, Hepacivirus hominis, isolate Con1, Huh-7
[4] = tested on: Hepatitis C virus; experiment: Ratio of EC50 for HCV genotype 1b Con1 infected in human HuH7 cells in presence of human serum to EC50 for HCV genotype 1b Con1 infected in human HuH7 cells; assay type: functional, Hepacivirus hominis, isolate Con1, Huh-7
[5] = tested on: Hepatitis C virus; experiment: Ratio of EC50 for HCV genotype 1a H77 infected in human HuH7 cells in presence of 10% BSA to EC50 for HCV genotype 1a H77 infected in human HuH7 cells; assay type: functional, Hepacivirus hominis, Huh-7
[6] = tested on: Hepatitis C virus; experiment: Ratio of EC50 for HCV genotype 1a H77 infected in human HuH7 cells in presence of human serum to EC50 for HCV genotype 1a H77 infected in human HuH7 cells; assay type: functional, Hepacivirus hominis, Huh-7
[7] = tested on: Hepatitis C virus; experiment: Antiviral activity against HCV genotype 1b Con1 infected in human HuH7 cells assessed as inhibition of viral RNA replication after 3 days by renilla luciferase reporter gene assay in presence of human serum; assay type: functional, organism-based, Hepacivirus hominis; conditions: isolate Con1, Huh-7, 72 h
[8] = tested on: Hepatitis C virus; experiment: Antiviral activity against HCV genotype 1a H77 infected in human HuH7 cells assessed as inhibition of viral RNA replication after 3 days by renilla luciferase reporter gene assay in presence of 10% BSA; assay type: functional, organism-based, Hepacivirus hominis; conditions: genotype 1a H77, Huh-7, 72 h
[9] = tested on: Hepatitis C virus; experiment: Antiviral activity against HCV genotype 1a H77 infected in human HuH7 cells assessed as inhibition of viral RNA replication after 3 days by renilla luciferase reporter gene assay in presence of human serum; assay type: functional, organism-based, Hepacivirus hominis; conditions: genotype 1a H77, Huh-7, 72 h
[10] = tested on: Hepatitis C virus; experiment: Antiviral activity against HCV genotype 1b Con1 infected in human HuH7 cells assessed as inhibition of viral RNA replication after 3 days by renilla luciferase reporter gene assay in presence of 10% BSA; assay type: functional, organism-based, Hepacivirus hominis; conditions: isolate Con1, Huh-7, 72 h
[11] = Oral bioavailability in beagle dog at 0.5 mg/kg; assay type: ADME, organism-based, Canis lupus familiaris; conditions: in vivo
[12] = Oral bioavailability in cynomolgus monkey at 1 mg/kg; assay type: ADME, organism-based, Macaca fascicularis; conditions: in vivo
[13] = Mean residence time in cynomolgus monkey at 0.5 mg/kg, iv; assay type: ADME, organism-based, Macaca fascicularis; parameters: dose 0.5 mg/kg, route intravenous; conditions: in vivo
[14] = Half life in cynomolgus monkey at 0.5 mg/kg, iv; assay type: ADME, organism-based, Macaca fascicularis; parameters: dose 0.5 mg/kg, route intravenous; conditions: in vivo
[15] = Volume of distribution at steady state in cynomolgus monkey at 0.5 mg/kg, iv; assay type: ADME, organism-based, Macaca fascicularis; parameters: dose 0.5 mg/kg, route intravenous; conditions: in vivo, read-out: Vdss
[16] = Clearance in cynomolgus monkey at 0.5 mg/kg, iv; assay type: ADME, organism-based, Macaca fascicularis; parameters: dose 0.5 mg/kg, route intravenous; conditions: in vivo
[17] = Mean residence time in beagle dog at 0.2 mg/kg, iv; assay type: ADME, organism-based, Canis lupus familiaris; parameters: dose 0.2 mg/kg, route intravenous; conditions: in vivo
[18] = Half life in beagle dog at 0.2 mg/kg, iv; assay type: ADME, organism-based, Canis lupus familiaris; parameters: dose 0.2 mg/kg, route intravenous; conditions: in vivo
[19] = Volume of distribution at steady state in beagle dog at 0.2 mg/kg, iv; assay type: ADME, organism-based, Canis lupus familiaris; parameters: dose 0.2 mg/kg, route intravenous; conditions: in vivo, read-out: Vdss
[20] = Clearance in beagle dog at 0.2 mg/kg, iv; assay type: ADME, organism-based, Canis lupus familiaris; parameters: dose 0.2 mg/kg, route intravenous; conditions: in vivo
[21] = Oral bioavailability in Sprague-Dawley rat at 2 mg/kg; assay type: ADME, organism-based; conditions: in vivo
[22] = Mean residence time in Sprague-Dawley rat at 1 mg/kg, iv; assay type: ADME, organism-based; parameters: dose 1 mg/kg, route intravenous; conditions: in vivo
[23] = Half life in Sprague-Dawley rat at 1 mg/kg, iv; assay type: ADME, organism-based; parameters: dose 1 mg/kg, route intravenous; conditions: in vivo
[24] = Volume of distribution at steady state in Sprague-Dawley rat at 1 mg/kg, iv; assay type: ADME, organism-based; parameters: dose 1 mg/kg, route intravenous; conditions: in vivo, read-out: Vdss
[25] = Clearance in Sprague-Dawley rat at 1 mg/kg, iv; assay type: ADME, organism-based; parameters: dose 1 mg/kg, route intravenous; conditions: in vivo
[26] = tested on: Hepatitis C virus; experiment: Antiviral activity against HCV genotype 1b Con1 infected in human HuH7 cells assessed as inhibition of viral RNA replication after 3 days by renilla luciferase reporter gene assay; assay type: functional, organism-based, Hepacivirus hominis; conditions: isolate Con1, Huh-7, 72 h
[27] = tested on: Hepatitis C virus; experiment: Antiviral activity against HCV genotype 1a H77 infected in human HuH7 cells assessed as inhibition of viral RNA replication after 3 days by renilla luciferase reporter gene assay; assay type: functional, organism-based, Hepacivirus hominis; conditions: genotype 1a H77, Huh-7, 72 h
[28] = Metabolic stability in human liver microsomes assessed as hepatic extraction at 3 uM after 60 mins by LC/MS/MS analysis; assay type: ADME; conditions: read-out: ERH
[29] = Metabolic stability in cynomolgus monkey liver microsomes assessed as hepatic extraction at 3 uM after 60 mins by LC/MS/MS analysis; assay type: ADME, Macaca fascicularis, Microsome; conditions: read-out: ERH
[30] = Metabolic stability in beagle dog liver microsomes assessed as hepatic extraction at 3 uM after 60 mins by LC/MS/MS analysis; assay type: ADME, Canis lupus familiaris; conditions: read-out: ERH
[31] = Metabolic stability in Sprague-Dawley rat liver microsomes assessed as hepatic extraction at 3 uM after 60 mins by LC/MS/MS analysis; assay type: ADME; conditions: read-out: ERH
[32] = Ratio of EC50 for HCV genotype 1a H77 infected in human HuH7 cells in presence of 10% BSA to plasma concentration in fasted healthy human at 100 mg, po at 24 hrs
[33] = Ratio of EC50 for HCV genotype 1a H77 infected in human HuH7 cells in presence of human serum to plasma concentration in fasted healthy human at 100 mg, po at 24 hrs

EC50 [7]: 27 pM
EC50 [8]: 210 pM
EC50 [9]: 210 pM
EC50 [10]: 27 pM
bioavailability [11]: 53%
bioavailability [12]: 41.1%
MRT [13]: 12.9 h
half-life [14]: 10.3 h
Vd [15]: 2.15 L/kg
clearance [16]: 2.83 mL/min/kg
MRT [17]: 9.2 h
half-life [18]: 7.41 h
Vd [19]: 1.19 L/kg
clearance [20]: 2.17 mL/min/kg
bioavailability [21]: 32.5%
MRT [22]: 6.19 h
half-life [23]: 4.67 h
Vd [24]: 2.66 L/kg
clearance [25]: 7.17 mL/min/kg
EC50 [26]: 4 pM
EC50 [27]: 31 pM
hepatic extraction ratio at 1 h, 3 µM [28]: < 0.127
hepatic extraction ratio at 1 h, 3 µM [29]: < 0.127
hepatic extraction ratio at 1 h, 3 µM [30]: < 0.095
hepatic extraction ratio at 1 h, 3 µM [31]: < 0.092
Structure (SMILES): COC(=O)N[C@H](C(=O)N1CC2(CC2)C[C@H]1c1nc(-c2ccc3c(c2)C(F)(F)c2cc(-c4ccc5[nH]c([C@@H]6[C@H]7CC[C@H](C7)N6C(=O)[C@@H](NC(=O)OC)C(C)C)nc5c4)ccc2-3)c[nH]1)C(C)C
Activity [1]: Non-toxic
Activity [2]: Non-toxic
Ratio EC50 [3]: 6.7
Ratio EC50 [4]: 6.7
Ratio EC50 [5]: 6.7
Ratio EC50 [6]: 6.7
Ratio [32]: 470
Ratio [33]: 470
